# Test results: patent US20100048621A1, “MEDICAMENT FOR TREATING CHRONIC OBSTRUCTIVE PULMONARY DISEASE” (priority 2007, published 2010)
# Tested on: elastase-treated model mouse of COPD
# Assay: Combination effect of cilostazol/probucol for pulmonary disorder in mouse treated with human neutrophil elastase (COPD model)
# Type: in vivo, C57BL/6J mouse
# Settings: free feeding from 7 days before intratracheal human neutrophil elastase 20 U/50 μL, lungs 3 weeks after elastase, mean±standard deviation, control 178.8±22.4, normal 51.4±1.9, P<0.01 vs control
# Description: Combination effect of cilostazol/probucol for pulmonary disorder in C57BL/6J mouse treated with elastase produced from human neutrophil.
# • Animals: female C57BL/6J mice (5 weeks old) which were purchased from Charles River Laboratories Japan, Inc. were used.
# Group composition: the following 5 groups. • Non-treated (normal control) group: n=4 • Elastase-treated group (control group): n=6 • Elastase-treated, 0.3% cilostazol-administrated group: n=6 • Elastase-treated, 0.5% probucol-administrated group: n=6 • Elastase-treated, (0.3% cilostazol+0.5% probucol)−administrated group: n=6
# Female C57BL/6J mice (5 weeks old) were divided into the given groups by a stratified randomization (using an SAS software, R 8.1) based on each body weight on the starting day of administration. Shortly after the group division, a MF feed was given to the non-treated group and the control group, and a mixed feed in which cilostazol or/and probucol was added in the given ratio was given to the medicament(s)-treated groups, in free feeding. […]
# The following groups were statistically analyzed in order to study about the effect of the single-administration and combination-administration of the medicament(s). • 1) Elastase-treated group (control group) • 2) 0.3% Cilostazol-administrated group • 3) 0.5% Probucol-administrated group • 4) (0.3% Cilostazol+0.5% probucol)−administrated group […]
compound,measurement,setting,value
"O=C1CCc2cc(OCCCCc3nnnn3C3CCCCC3)ccc2N1 [cilostazol, 6-[4-(1-cyclohexyl-1H-tetrazol-5-yl)butoxy]-3,4-dihydrocarbostyril]",mean linear intercept of pulmonary alveolus,0.3% cilostazol in mixed feed,116.9±14.3 μm
"CC(C)(Sc1cc(C(C)(C)C)c(O)c(C(C)(C)C)c1)Sc1cc(C(C)(C)C)c(O)c(C(C)(C)C)c1 [probucol, 4,4′-isopropylidenedithiobis[2,6-di-tert-butylphenol]]",mean linear intercept of pulmonary alveolus,0.5% probucol in mixed feed,86.2±4.8 μm
